Reference: patent US20140296176A1, “COMBINATION CANCER THERAPY WITH AN HSP90 INHIBITOR AND AN ANTIMETABOLITE” (Synta Pharmaceuticals Corp., priority 2011, published 2014)

Tests used:
[1] = system: HCT-116 colorectal cancer cells; assay: alamarBlue cell viability assay, HCT-116 cells; type: cell-based; details: Homo sapiens, 72 hr drug exposure
Procedure: (§1) Human HCT-116 colorectal cancer cells (CRC) were purchased from the American Type Culture Collection (Manassas, Va.) and grown in McCoy's 5a media (Sigma), following ATCC recommendations, in the presence of fetal bovine serum (10%), 2 mM L-glutamine and antibiotics (100 IU/ml penicillin and 100 μg/ml streptomycin, Sigma). Cells were maintained at 37° C., 5% CO2 atmosphere.
Cell viability was measured using the alamarBlue assay (Invitrogen). In brief, cells were plated in 96-well plates in triplicate at 5K cells per well and incubated at 37° C., 5% CO2 atmosphere for 24 hr prior to the addition of drug or vehicle (0.3% DMSO) to the culture medium. […] Fluorescence (560EX/590EM nM) was measured with a SpectraMax microplate reader (Molecular Devices) and the resulting data were used to calculate cell viability, normalized to vehicle control.
After HCT-116 cells were exposed to drug for 72 hr, cell viability was measured and results were fit to a four parameter logistic model (XLFit, ID Business Solutions).
(§2) Combinations between ganetespib and fluorouracil were then performed in HCT-116 cells concurrently based on the IC50 for each agent in matrix format with 54 combination pairs for each drug. The combined drugs, as well as each drug alone, were incubated with the cells for 3 days and the surviving fraction of cells relative to control was determined using the alamarBlue assay.

MOLT-4 cells = assay: alamarBlue cell viability assay, MOLT-4 cells; type: cell-based; details: Homo sapiens, 72 hr drug exposure, four parameter logistic fit
Procedure: as §1, with “MOLT-3, MOLT-4 and Jurkat T cell leukemia” for “HCT-116 colorectal cancer”, “cells” for “cells (CRC)”, “RPMI” for “McCoy's 5a media”
Cell viability was measured using the alamarBlue assay (Invitrogen). In brief, cells were plated in 96-well plates in triplicate at 20K, 15K or 15K cells per well for MOLT-3, MOLT-4 or Jurkat cells respectively, and incubated at 37° C., 5% CO2 atmosphere for 24 hr prior to the addition of drug or vehicle (0.3% DMSO) to the culture medium. After 72 hr, 10 μl/well Alamar Blue was added to the wells and incubated for an additional 3 hr at 37° C., 5% CO2 atmosphere. Fluorescence (560EX/590EM nM) was measured with a SpectraMax microplate reader (Molecular Devices) and the resulting data were used to calculate cell viability, normalized to vehicle control.
After MOLT-4 cells were exposed to drug for 72 hr, cell viability was measured and results were fit to a four parameter logistic model (XLFit, ID Business Solutions) shown in FIG. 1.
as §2, with “the nucleoside analog Ara-G” for “fluorouracil”, “MOLT-4” for “HCT-116”, “agent.” for “agent in matrix format with 54 combination pairs for each drug.”

[2] = system: KRAS substrates, including BRAF and CRAF; assay: destabilization of KRAS substrates in KRAS mutant NSCLC cells; type: cell-based, human; details: leading to inactivation of downstream effectors and programmed cell death
[3] = system: NSCLC having a KRAS mutation; assay: Phase 2 trial with ganetespib; type: in vivo, human; details: at 8 weeks
[4] = system: human KRAS mutant NSCLC tumor xenografts; assay: KRAS mutant NSCLC tumor xenografts in vivo; parameters: species or system mouse
[5] = system: KRAS mutant NSCLC cell lines; assay: cell viability in panel of KRAS mutant NSCLC cell lines; type: cell-based; details: Homo sapiens; across 15 KRAS mutant NSCLC cell lines in vitro
Procedure: For combinatorial analysis, cells were seeded in 96-well plates at a predetermined, optimum growth density for 24 h prior to the addition of drug or vehicle to the culture medium. Drug combinations were applied at a non-constant ratio over a range of concentrations for 72 or 96 hours. […] Cell viability was assessed by either AlamarBlue® (Invitrogen, Carlsbad, Calif.) or CellTiter-Glo® assays and normalized to vehicle controls. For each combination study, the level of growth inhibition (fraction affected) is plotted relative to vehicle control. Data are presented as one relevant combination point and the corresponding single agent data for each cell line tested.

| IC50 [1] [nM] | IC50 (MOLT-4 cells) [nM] | SMILES | destabilization of KRAS substrates [2] | patients exhibiting tumor shrinkage [3] [%] | growth of tumor xenografts [4] | IC50 [5] [nM] |
| --- | --- | --- | --- | --- | --- | --- |
| ~4500 | – | O=c1[nH]cc(F)c(=O)[nH]1 [5-FU, 5-fluorouracil, reference compound] | – | – | – | – |
| – | ~25 | Nc1ccn([C@@H]2O[C@H](CO)[C@@H](O)[C@@H]2O)c(=O)n1 [Ara-C, cytarabine] | – | – | – | – |
| – | ~2000 | COc1nc(N)nc2c1ncn2[C@@H]1O[C@H](CO)[C@@H](O)[C@@H]1O [Ara-G, nelarabine] | – | – | – | – |
| ~32 | ~20 | CC(C)c1cc(-c2nnc(O)n2-c2ccc3c(ccn3C)c2)c(O)cc1O [ganetespib, 3-(2,4-dihydroxy-5-isopropyl-phenyl)-4-(1-methyl-indol-5-yl)-5-hydroxy-[1,2,4]triazole] | induced the destabilization | > 60 | effectively suppressed the growth | 24 |
